What was measured:
[1] = tested on: IL-1β cytokine output from THP-1s; test: THP-1 AlphaLISA IL-1β cytokine assay; format: cell-based, human; settings: Homo sapiens, THP-1, PMA-differentiated THP-1 cells, LPS 24 hr then Nigericin 1 hour; read-out: IL-1β (IC50)
Procedure, shortened: (§1)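 PMA-differentiated THP-1 cells (72 h) were pre-incubated 30 min with compound, then LPS-primed 24 h and pulsed with nigericin for 1 h at 37 °C. Supernatant cytokine was quantified by AlphaLISA; % inhibition was normalised to +/−LPS plate controls and IC50 taken from concentration-response curves.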

[2] = tested on: NRF2; test: NRF2 +/-GSH activation assay (DiscoverX PathHunter NRF2 translocation kit, U2OS cells); format: cell-based; settings: Homo sapiens, GSH condition not stated in Table 5; for Emax: U2OS, normalised to dimethyl fumarate 'High' control, read-out: NRF2 activation Emax; for EC50: U2OS PathHunter cells, 6 hours, read-out: NRF2 activation EC50
Procedure, shortened: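 Percent activation, normalised to dimethyl fumarate (high) and vehicle (low) controls, was fitted for EC50 after 6 hours treatment of U2OS PathHunter cells. In the +GSH arm compounds were first pre-incubated 30 minutes in 6 mM working GSH; NRF2 translocation read by chemiluminescent complementation.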

[3] = tested on: NQO1; test: NQO1 enzyme activation assay as a readout of NRF2 activation in THP-1 cells; format: cell-based; settings: Homo sapiens; for Emax: THP-1, percentage activation at top concentration, normalised to DMF (100%) and vehicle controls; for EC50: differentiated THP-1 cells, LPS, 48 hr
Procedure: NQO1 Enzyme Activation Assay as a Readout of NRF2 Activation in THP-1 Cellular Background
NAD(P)H dehydrogenase [quinone] […] Induction of this gene is concomitant with the inhibition of proinflammatory cytokine transcription and suppression of the inflammatory response (Kobayashi E. H. et al., 2016). The NQO1 enzyme activation activities of compounds of formula (IW-1) were determined using a cellular based NQO1 activation assay (Abcam). The NQO1 activation assay was run in differentiated THP-1 cells (a human monocyte-like cell line) as described below. All reagents described are from Sigma-Aldrich unless specified otherwise. Compounds were prepared as 10 mM DMSO stocks.
THP-1 cells were expanded as a suspension up to 80% confluence in appropriate growth medium. Cells were harvested, suspended, treated with phorbol 12-myristate 13-acetate (PMA) and plated according to the cell density required for each plate format over a 72 hr period (37° C./5% CO2).
Following 72 hrs of THP-1 cell incubation, cellular medium was removed and replaced with fresh media. Working concentrations of compounds were prepared and pre-incubated for 30 minutes (37° C./5% CO2). Compound treatment was then applied to the PMA treated THP-1 cell plate followed by LPS treatment. A ‘low’ (DMSO vehicle only) control and ‘high’ (designated concentration of dimethyl fumarate) was applied to each plate at the point of compound treatment. Cells were subsequently incubated for a 48 hr period (37° C./5% C02) after which all NQO1 assay reagents were prepared according to the manufacturer's instructions. NQO1 extraction buffer was applied to PBS washed THP-1 cells and incubated on ice for 15 minutes to prepare THP-1 lysates for the NQO1 activity assay. THP-1 lysates were diluted 1:5 with PBS and treated with a 1:1 volume of kit prepared NQO1 Reaction Buffer. Absorbance was subsequently measured kinetically on an appropriate reader over a 6 minute period.
For activation determination, the fold change in response per well was determined by first calculating the average NQO1 activation data for the vehicle control and then dividing the individual well response by the averaged NQO1 response for the vehicle control as shown below: Fold change=(Sample value)/MeanMin Where ‘Min’=vehicle control only
The relative 50% activation concentration (EC50) was determined from the resulting fold change response curve. The maximum efficacy (Emax) was reported as the percentage activation calculated at the top concentration of compound used in the titration applied. If a full curve was unattainable preventing a correct curve fit, the Emax value was extrapolated using existing curve data. All percentage activation data were normalised to the DMF and vehicle controls, meaning the Emax represents the percentage […] achieved by a compound at a particular concentration relative to that achieved by DMF (set as the ‘High’ control and therefore representative of 100% activation).

[4] = tested on: IL-6 cytokine output from THP-1s; test: THP-1 AlphaLISA IL-6 cytokine assay; format: cell-based, human; settings: Homo sapiens; PMA-differentiated THP-1 cells, LPS 24 hr then Nigericin 1 hour
Procedure, shortened: as §1

[5] = tested on: hepatocytes; test: Hepatocyte stability assay (human); format: in vitro ADME; settings: 10 μM compound, 0.5×10^6 cells/mL, 60 minutes
Excerpt: (§2) Defrosted cryo-preserved hepatocytes (viability >70%) are used to determine the metabolic stability of a compound via calculation of intrinsic clearance (Clint; a measure of the removal of a compound from the liver in the absence of blood flow and cell binding). Clearance data are particularly important for in vitro work as they can be used in combination with in vivo data to predict the half-life and oral bioavailability of a drug.
(§3) The metabolic stability in hepatocytes assay involves a time-dependent reaction using both positive and negative controls. The cells must be pre-incubated at 37° C. then spiked with test compound (and positive control); samples taken at pre-determined time intervals are analysed to monitor the change in concentration of the initial drug compound over 60 minutes. A buffer incubation reaction (with no hepatocytes present) acts as a negative control and two cocktail solutions, containing compounds with known high and low clearance values (verapamil/7-hydroxycoumarin and propranolol/diltiazem), act as positive controls. • 1. The assay is run with a cell concentration of 0.5×10^6 cells/mL in Leibovitz buffer. • 2. All compounds and controls are run in duplicate. • 3. Compound concentration is 10 μM. • 4. All compounds and controls are incubated with both cells and buffer to show turnover is due to hepatic metabolism. • 5. All wells on the incubation plate will have 326.7 μL of either cells or buffer added. • 6. Prior to assay, cell and buffer-only incubation plates are preincubated for 10 mins at 37° C. • 7. The assay is initiated by adding compounds, 3.3 μL of 1 mM in 10% DMSO-90% Buffer; final DMSO concentration is 0.1%. • 8. Samples are taken at regular timepoints (0, 5, 10, 20, 40, 60 min) until 60 mins. • 9. Sample volume is 40 μL and it is added to 160 μL of crash solvent (acetonitrile with internal standard) and stored on ice. • 10. At the end of the assay, the crash plates are centrifuged at 3500 rpm for 20 mins at 4° C. • 11. 80 μL of clear supernatant is removed and mixed with 80 μL of deionised water before being analysed by LC-MS/MS.
(§4) Raw LC-MS/MS data are exported to, and analysed in, Microsoft Excel for determination of intrinsic clearance. The percentage remaining of a compound is monitored using the peak area of the initial concentration as 100%. Intrinsic clearance and half-life values are calculated using a graph of the natural log of percentage remaining versus the time of reaction in minutes. Half-life (min) and intrinsic clearance (Clint in μL min^−1 10^−6 cells) values are calculated using the gradient of the graph (the elimination rate constant, k) and Equations 1 and 2.

[6] = tested on: hepatocytes; test: Hepatocyte stability assay (mouse); format: in vitro ADME; settings: 10 μM compound, 0.5×10^6 cells/mL, 60 minutes
Excerpt: as §2, §3, §4

[7] = tested on: IL-1β cytokine output from isolated primary human monocytes; test: Primary human monocyte AlphaLISA IL-1β cytokine assay; format: cell-based; settings: CD14+ primary human monocytes, LPS 24 hr then Nigericin 1 hour
Procedure: Measuring Inhibitory Effects on IL-1β and IL-6 Cytokine Output from Isolated Primary Human Monocytes
The cytokine inhibition profiles of compounds of formula (IW-1) were determined in a CD14^+ isolated primary human monocyte cell assay. All assays were performed in RPMI-1640 growth medium (Gibco), supplemented with heat-inactivated fetal bovine serum (FBS) and 1% penicillin-streptomycin unless specified otherwise. The IL-1β and IL-6 cytokine inhibition assays were each run in a background of isolated primary human monocyte cells as described below. All reagents described were from Sigma-Aldrich unless specified otherwise. Compounds were prepared as 100 mM DMSO stocks.
Primary peripheral blood mononuclear cells (PBMCs) were isolated from human whole blood. Following PBMC isolation, a CD14^+ monocyte isolation step was conducted whereby CD14^+ magnetic beads (Miltenyi Biotec) were incubated for 15 minutes with the PBMC suspension that was previously treated with ice cold T-cell isolation buffer (PBS, 0.5% BSA, 2 mM EDTA). Following bead incubation, the treated cell suspension was passed through a magnetic separation column designed to positively select for magnetically labelled cells. The isolated CD14^+ monocytes were subsequently plated at the appropriate cell density for the assay, prior to compound treatment on the day of plating. Working concentrations of compounds were prepared separately in RPMI-1640 only growth medium and pre-incubated with the cells for 30 minutes (37° C./5% CO2). Following the 30 minute compound pre-incubation, primary monocytes were treated with an appropriate concentration of LPS and subsequently incubated for a 24 hr period (37° C./5% CO2). An appropriate final concentration of Nigericin was then dispensed into the primary monocyte plates and incubated for 1 hour (37° C./5% CO2) before monocyte supernatants were harvested and collected in separate polypropylene 96-well holding plates prior to commencing the AlphaLISA cytokine assay.
Reagents from each of the IL-1β and IL-6 commercial kits (Perkin Elmer) were prepared and run according to the manufacturer's instructions. Subsequently, fluorescence signal was measured in a microplate reader (EnVision® Multilabel Reader, Perkin Elmer).
Percentage inhibition was calculated per cytokine by normalising the sample data to the high and low controls used within each plate (+/−LPS respectively). Percentage inhibition was then plotted against compound concentration and the 50% inhibitory concentration (IC50) was determined from the resultant concentration-response curve.

[8] = Hepatocyte stability assay (human); format: in vitro ADME; settings: cryopreserved hepatocytes, 10 μM compound, 0.5×10^6 cells/mL, 60 minutes, read-out: T½
Excerpt: as §2, §3, §4

[9] = Hepatocyte stability assay (mouse); format: in vitro ADME; settings: cryopreserved hepatocytes, 10 μM compound, 0.5×10^6 cells/mL, 60 minutes, read-out: T½
Excerpt: as §2, §3, §4

[10] = Mouse pharmacokinetic study, intravenous dosing; format: in vivo; settings: male, C57BL/6, mouse, iv, plasma, 10 mg/kg i.v., read-out: Parent compound concentration following intravenous administration
Procedure, shortened: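 Oral arm: 100 mg/kg gavage in 5% DMSO with 0.5% HPMC/0.1% Tween 80, blood from 5 min to 24 h. Intravenous arm: 10 mg/kg tail-vein injection in 10% DMSO with HP-β-CD, blood from 3 min to 8 h. Male C57BL/6 mice; LC-MS/MS on plasma.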

IC50 [1]	EC50 [2]	EC50 [3]	IC50 [4]	SMILES	Emax [2]	Emax [3]	CIint (μL min^−1 10^−6 cells) [5]	CIint (μL min^−1 10^−6 cells) [6]	also measured
5.6 µM	13.5 µM	20 µM	3.4 µM	C=C(CC(=O)OCCCOc1ccccc1)C(=O)OCCS(C)(=O)=O [Example 20, 1-(2-(methylsulfonyl)ethyl) 4-(3-phenoxypropyl) 2-methylenesuccinate]	116%	224%	–	–	–
–	–	–	–	C=C(CC(=O)OCCCCCCCC)C(=O)O [4-octyl itaconate, 4-Octyl itaconate, reference compound]	–	–	401 μL min^−1 10^−6 cells	351 μL min^−1 10^−6 cells	T½ [5]: 4 min; T½ [6]: 4 min; IC50 [7]: > 100 µM
6.5 µM	5.7 µM	5.9 µM	2 µM	C=C(CC(=O)OCCCCCCCC)C(=O)OCCN1CCCC1=O [Example 5, 4-octyl 1-(2-(2-oxopyrrolidin-1-yl)ethyl) 2-methylenesuccinate]	216%	81%	–	–	–
11 µM	–	–	–	C=C(CC(=O)O[C@H]1C[C@H]2CC[C@]1(C)C2(C)C)C(=O)OCC(=O)O [Example 179, 2-((2-methylene-4-oxo-4-(((1R,2S,4R)-1,7,7-trimethylbicyclo[2.2.1]heptan-2-yl)oxy)butanoyl)oxy)acetic acid]	–	–	13 μL min^−1 10^−6 cells	129 μL min^−1 10^−6 cells	half-life at 10 μM [8]: 129 min; half-life at 10 μM [9]: 13 min; concentration at 0.05 h ([10]; time 0.05 h): 17900 ng/mL; concentration at 0.133 h ([10]; time 0.133 h): 5320 ng/mL; concentration at 0.25 h ([10]; time 0.25 h): 1810 ng/mL; concentration at 0.5 h ([10]; time 0.5 h): 456 ng/mL; concentration at 1 h ([10]; time 1 h): 13 ng/mL; concentration at 2 h ([10]; time 2 h): < 4 ng/mL; concentration at 4 h ([10]; time 4 h): < 4 ng/mL; concentration at 6 h ([10]; time 6 h): < 4 ng/mL; concentration at 8 h ([10]; time 8 h): < 4 ng/mL
1.6 µM	8.8 µM	14.4 µM	2.1 µM	C=C(CC(=O)OCCCCCC)C(=O)OCCS(C)(=O)=O [Example 14, 4-hexyl 1-(2-(methylsulfonyl)ethyl) 2-methylenesuccinate]	189%	180%	–	–	–
2.9 µM	–	12.1 µM	2.4 µM	C=C(CC(=O)OCCCCCCCC)C(=O)OCC(=O)N(C)C [Example 21, 1-(2-(dimethylamino)-2-oxoethyl) 4-octyl 2-methylenesuccinate]	–	150%	–	–	–

Reference: patent US12390437B2, “Itaconic acid derivatives and uses thereof intreating an inflammatory disease or a disease associated with an undesirable immune response” (Sitryx Therapeutics Limited, priority 2019, dated 2025)
